In PubChem BioAssay AID2060607 (Molecular Pharmacology Branch, DTP, NCI, 2025):

Test system: 876862-298-R-J1-PDC complex spheroids, viability % test/control
Test: Anticancer human tumor 876862-298-R-J1-PDC patient-derived endometrial carcinoma cell line growth inhibition [CLK]
Conditions: for IC50: curve of first compound; for viability, T/C: stronger effect = lower value
Summary of the method: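 Multi-cell-type spheroids combined patient-derived tumor cells with HUVEC endothelial cells and human mesenchymal stem cells. Paired agents were dosed in half-log steps down from about clinical Cmax, or from 10 microM where Cmax was unknown.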
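Also: spheroids exposed to drugs for 7 days before readout.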
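For viability, T/C in this document: 100% = DMSO vehicle control wells.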

CC(=O)O[C@H]1C(=O)[C@@]2(C)[C@H]([C@H](OC(=O)c3ccccc3)[C@]3(O)C[C@H](OC(=O)[C@H](O)[C@@H](NC(=O)c4ccccc4)c4ccccc4)C(C)=C1C3(C)C)[C@]1(OC(C)=O)CO[C@@H]1C[C@@H]2O + CN1CCN(c2cc(C(=O)Nc3cc4cc(-c5cnn(C)c5)ccc4cn3)ccn2)CC1
IC50 (second compound 0.0316 µM): < 31.6 nM
IC50 (second compound 0.1 µM): < 31.6 nM
IC50 (second compound 0.316 µM): < 31.6 nM
IC50 (second compound 1 µM): < 31.6 nM
IC50 (second compound 3.16 µM): < 31.6 nM
IC50 (second compound 10 µM): < 31.6 nM
viability, T/C (second compound 0.0316 µM, first compound 0.0316 µM): 32.4%
viability, T/C (second compound 0.0316 µM, first compound 0.1 µM): 28.7%
viability, T/C (second compound 0.0316 µM, first compound 0.316 µM): 30.5%
viability, T/C (second compound 0.0316 µM, first compound 1 µM): 28.1%
viability, T/C (second compound 0.0316 µM, first compound 3.16 µM): 30.7%
viability, T/C (second compound 0.0316 µM, first compound 10 µM): 34.8%
viability, T/C (second compound 0.1 µM, first compound 0.0316 µM): 28.6%
viability, T/C (second compound 0.1 µM, first compound 0.1 µM): 24.5%
viability, T/C (second compound 0.1 µM, first compound 0.316 µM): 22.7%
viability, T/C (second compound 0.1 µM, first compound 1 µM): 21.3%
viability, T/C (second compound 0.1 µM, first compound 3.16 µM): 23.5%
viability, T/C (second compound 0.1 µM, first compound 10 µM): 24.1%
viability, T/C (second compound 0.316 µM, first compound 0.0316 µM): 1.74%
viability, T/C (second compound 0.316 µM, first compound 0.1 µM): 1.82%
viability, T/C (second compound 0.316 µM, first compound 0.316 µM): 2.01%
viability, T/C (second compound 0.316 µM, first compound 1 µM): 2.21%
viability, T/C (second compound 0.316 µM, first compound 3.16 µM): 2.68%
viability, T/C (second compound 0.316 µM, first compound 10 µM): 4.53%
viability, T/C (second compound 1 µM, first compound 0.0316 µM): 0.82%
viability, T/C (second compound 1 µM, first compound 0.1 µM): 0.89%
viability, T/C (second compound 1 µM, first compound 0.316 µM): 0.6%
viability, T/C (second compound 1 µM, first compound 1 µM): 0.59%
viability, T/C (second compound 1 µM, first compound 3.16 µM): 0.84%
viability, T/C (second compound 1 µM, first compound 10 µM): 0.56%
viability, T/C (second compound 3.16 µM, first compound 0.0316 µM): 0.93%
viability, T/C (second compound 3.16 µM, first compound 0.1 µM): 0.84%
viability, T/C (second compound 3.16 µM, first compound 0.316 µM): 0.96%
viability, T/C (second compound 3.16 µM, first compound 1 µM): 0.79%
viability, T/C (second compound 3.16 µM, first compound 3.16 µM): 0.78%
viability, T/C (second compound 3.16 µM, first compound 10 µM): 0.55%
viability, T/C (second compound 10 µM, first compound 0.0316 µM): 0.6%
viability, T/C (second compound 10 µM, first compound 0.1 µM): 0.59%
viability, T/C (second compound 10 µM, first compound 0.316 µM): 0.57%
viability, T/C (second compound 10 µM, first compound 1 µM): 0.58%
viability, T/C (second compound 10 µM, first compound 3.16 µM): 0.66%
viability, T/C (second compound 10 µM, first compound 10 µM): 0.58%
